Where a name gives a salt, the structure may show the parent alone. Read-outs that look alike come from different tables or passages of the source.
Columns and labels:
SUV39H2 = SUV39H2 (Homo sapiens (Human), UniProt Q9H5I1); test: biochemical; type: biochemical; details: 3H-SAM 100 nM, H3 Histone Peptide 350 nM, room temperature 3 hours
Method in brief: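 Human SUV39H2, at a lot-specific concentration set by specific activity, was incubated with test compounds for 3 h at room temperature, then stopped with streptavidin SPA beads (50 μg/well final).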

A549 = test: Cell-based assay, anti-proliferative activity (Cell Counting Kit-8, 72 hours); details: Homo sapiens, read-out: A549 IC50
Method in brief: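 Following seeding into 96-well microtiter plates, the cells receive candidate inhibitors, and cellular growth is quantified at the end of the exposure period. An IC50 is computed for each compound.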

[1] = A549 cells, 72 hours exposure, Cell Counting Kit-8

Sequence of SUV39H2 (Q9H5I1 whole entry): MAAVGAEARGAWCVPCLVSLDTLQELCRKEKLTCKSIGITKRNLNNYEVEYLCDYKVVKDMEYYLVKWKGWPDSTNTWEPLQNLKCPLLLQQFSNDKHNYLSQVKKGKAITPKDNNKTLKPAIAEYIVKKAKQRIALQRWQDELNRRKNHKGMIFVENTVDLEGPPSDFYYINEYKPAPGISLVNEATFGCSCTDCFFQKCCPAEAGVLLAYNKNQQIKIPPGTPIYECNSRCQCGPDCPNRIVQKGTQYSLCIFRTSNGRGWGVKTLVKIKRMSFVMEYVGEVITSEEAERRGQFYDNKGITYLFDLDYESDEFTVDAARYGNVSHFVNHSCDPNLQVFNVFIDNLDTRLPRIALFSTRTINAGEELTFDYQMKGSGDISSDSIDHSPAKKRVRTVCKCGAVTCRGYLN

SMILES	IC50 (SUV39H2)	IC50 (A549; [1])	IC50 (A549; A549, 72 h)
COc1cc(OC)c(-c2cn3ccc(N[C@H]4CC[C@H](NCc5cccc(C#N)c5)CC4)cc3n2)cc1Cl [Example 397, 3-((((1r,4r)-4-((2-(5-chloro-2,4-dimethoxyphenyl)imidazo[1,2-a]pyridin-7-yl)amino)cyclohexyl)amino)methyl)benzonitrile]	64.6 nM	700 nM	–
COc1cc(OC)c(-c2cn3ccc(N[C@H]4CC[C@H](Nc5nccc(N6CCN(C)CC6)n5)CC4)cc3n2)cc1Cl [Example 398, (1r,4r)-N^1-(2-(5-chloro-2,4-dimethoxyphenyl)imidazo[1,2-a]pyridin-7-yl)-N^4-(4-(4-methylpiperazin-1-yl)pyrimidin-2-yl)cyclohexane-1,4-diamine]	23.3 nM	440 nM	–
COc1cc(OC)c(-c2cn3ccc(N4CCN(c5ccnc(NCC(C)O)n5)CC4)cc3n2)cc1Cl (stereo not drawn) [Example 399, 1-((4-(4-(2-(5-chloro-2,4-dimethoxyphenyl)imidazo[1,2-a]pyridine-7-yl)piperazin-1-yl)pyrimidin-2-yl)amino)propan-2-ol]	11.7 nM	660 nM	–
COc1cc(OC)c(-c2cn3ccc(N4CC[C@H](NCC5CCN(C(=O)OC(C)(C)C)CC5)C4)cc3n2)cc1Cl [Example 400, (S)-tert-butyl 4-(((1-(2-(5-chloro-2,4-dimethoxyphenyl)imidazo[1,2-a]pyridine-7-yl)pyrrolidin-3-yl)amino)methyl)piperidine-1-carboxylate]	7.15 nM	930 nM	–
CNC1CCN(c2ncc(N3CCN(c4ccn5cc(-c6cc(Cl)c(OC)cc6OC)nc5c4)CC3)cn2)C1 (stereo not drawn) [Example 401, 1-(5-(4-(2-(5-chloro-2,4-dimethoxyphenyl)imidazo[1,2-a]pyridin-7-yl)piperazin-1-yl)pyrimidin-2-yl)-N-methylpyrrolidin-3-amine dihydrochloride]	6.81 nM	–	500 nM
COc1cc(OC)c(-c2cn3ccc(N[C@H]4CC[C@@H](NCc5cccc(F)c5)CC4)cc3n2)cc1Cl [Example 402, cis-N^1-(2-(5-chloro-2,4-dimethoxyphenyl)imidazo[1,2-a]pyridin-7-yl)-N^4-(3-fluorobenzyl)cyclohexane-1,4-diamine bis(2,2,2-trifluoroacetate)]	18.7 nM	740 nM	–
COc1cc(OC)c(-c2cn3ccc(N[C@H]4CC[C@@H](NCc5ccc(C#N)cc5)CC4)cc3n2)cc1Cl [Example 403, 4-((((1s,4s)-4-((2-(5-chloro-2,4-dimethoxyphenyl)imidazo[1,2-a]pyridine-7-yl)amino)cyclohexyl)amino)methyl) benzonitrile]	15.1 nM	750 nM	–
COc1cc(OC)c(-c2cn3ccc(N4CC[C@H](NC(=O)c5ccccn5)C4)cc3n2)cc1Cl [Example 404, (S)—N-(1-(2-(5-chloro-2,4-dimethoxyphenyl)imidazo[1,2-a]pyridin-7-yl)pyrrolidin-3-yl)picolinamide]	4.03 nM	1500 nM	–
COc1cc(OC)c(-c2cn3ccc(N4CCN(c5nccc(N6CCC(N)C6)n5)CC4)cc3n2)cc1Cl (stereo not drawn) [Example 405, 1-(2-(4-(2-(5-chloro-2,4-dimethoxyphenyl)imidazo[1,2-a]pyridin-7-yl)piperazin-1-yl)pyrimidin-4-yl)pyrrolidin-3-amine]	15.3 nM	690 nM	–
COc1cc(OC)c(-c2cn3ccc(N[C@H]4CC[C@H](Nc5nccc(N6CCOCC6)n5)CC4)cc3n2)cc1Cl [Example 406, (1r,4r)-N^1-(2-(5-chloro-2,4-dimethoxyphenyl)imidazo[1,2-a]pyridin-7-yl)-N^4-(4-morpholinopyrimidin-2-yl)cyclohexane-1,4-diamine]	37 nM	740 nM	–
COc1cc(OC)c(-c2cn3ccc(N4CC[C@H](NC(C)c5ccncc5)C4)cc3n2)cc1Cl (stereo partly drawn) [Example 407, (3S)-1-(2-(5-chloro-2,4-dimethoxyphenyl)imidazo[1,2-a]pyridin-7-yl)-N-(1-(pyridin-4-yl)ethyl)pyrrolidin-3-amine dihydrochloride]	7.7 nM	–	950 nM
COc1cc(OC(F)F)c(-c2cn3ccc(N4CC[C@H](NC(=O)OC(C)(C)C)C4)cc3n2)cc1Cl [Example 408, (S)-tert-butyl (1-(2-(5-chloro-2-(difluoromethoxy)-4-methoxyphenyl)imidazo[1,2-a]pyridine-7-yl)pyrrolidin-3-yl)carbamate]	12.7 nM	560 nM	–
COc1cc(OC)c(-c2cn3ccc(N4CCN(/N=C\c5ccncc5)CC4)cc3n2)cc1Cl [Example 410, (Z)-4-(2-(5-chloro-2,4-dimethoxyphenyl)imidazo[1,2-a]pyridin-7-yl)-N-(pyridin-4-ylmethylene)piperazin-1-amine]	8.29 nM	780 nM	–
COc1cc(OC)c(-c2cn3ccc(N[C@H]4CC[C@@H](NCc5ccc([N+](=O)[O-])cc5)CC4)cc3n2)cc1Cl [Example 411, cis-N^1-(2-(5-chloro-2,4-dimethoxyphenyl)imidazo[1,2-a]pyridin-7-yl)-N^4-(4-nitrobenzyl)cyclohexane-1,4-diamine]	26.3 nM	370 nM	–
COc1cc(OC)c(-c2cn3ccc(N4CC[C@H](NCc5ccnc(F)c5)C4)cc3n2)cc1Cl [Example 412, (S)-1-(2-(5-chloro-2,4-dimethoxyphenyl)imidazo[1,2-a]pyridin-7-yl)-N-((2-fluoropyridin-4-yl)methyl)pyrrolidin-3-amine dihydrochloride]	6.83 nM	–	850 nM
COc1cc(OC)c(-c2cn3ccc(N4CC[C@H](NCc5ccnc(Cl)c5)C4)cc3n2)cc1Cl [Example 413, (S)-1-(2-(5-chloro-2,4-dimethoxyphenyl)imidazo[1,2-a]pyridin-7-yl)-N-((2-chloropyridin-4-yl)methyl)pyrrolidin-3-amine dihydrochloride]	6.35 nM	–	770 nM
COc1cc(OC)c(-c2cn3ccc(N[C@H]4CC[C@H](NCc5ccccc5F)CC4)cc3n2)cc1Cl [Example 414, (1r,4r)-N^1-(2-(5-chloro-2,4-dimethoxyphenyl)imidazo[1,2-a]pyridin-7-yl)-N^4-(2-fluorobenzyl)cyclohexane-1,4-diamine]	84.8 nM	820 nM	–
COc1cc(OC)c(-c2cn3ccc(N[C@H]4CC[C@H](NCc5cccc(C)c5)CC4)cc3n2)cc1Cl [Example 415, (1r,4r)-N^1-(2-(5-chloro-2,4-dimethoxyphenyl)imidazo[1,2-a]pyridin-7-yl)-N^4-(3-methylbenzyl)cyclohexane-1,4-diamine]	98 nM	620 nM	–
COc1cc(OC)c(-c2cn3ccc(N4CC[C@H](NC(C)C5CCCCC5)C4)cc3n2)cc1Cl (stereo partly drawn) [Example 416, (3S)-1-(2-(5-chloro-2,4-dimethoxyphenyl)imidazo[1,2-a]pyridin-7-yl)-N-(1-cyclohexylethyl)pyrrolidin-3-amine]	47.6 nM	670 nM	–
COc1cc(OC)c(-c2cn3ccc(N4CCN(c5cnc(N6CCCC(N)C6)nc5)CC4)cc3n2)cc1Cl (stereo not drawn) [Example 417, 1-(5-(4-(2-(5-chloro-2,4-dimethoxyphenyl)imidazo[1,2-a]pyridin-7-yl)piperazin-1-yl)pyrimidin-2-yl)piperidin-3-amine]	9.91 nM	620 nM	–
COc1cc(OC)c(-c2cn3ccc(N[C@H]4CC[C@@H](NCc5ccc(N(C)C)cc5)CC4)cc3n2)cc1Cl [Example 418, cis-N^1-(2-(5-chloro-2,4-dimethoxyphenyl)imidazo[1,2-a]pyridin-7-yl)-N^4-(4-(dimethylamino)benzyl)cyclohexane-1,4-diamine bis(2,2,2-trifluoroacetate)]	41.3 nM	610 nM	–
COc1cc(OC)c(-c2cn3ccc(N[C@H]4CC[C@H](NCc5ccc(N(C)C)cc5)CC4)cc3n2)cc1Cl [Example 419, (1r,4r)-N^1-(2-(5-chloro-2,4-dimethoxyphenyl)imidazo[1,2-a]pyridin-7-yl)-N^4-(4-(dimethylamino)benzyl)cyclohexane-1,4-diamine]	82 nM	490 nM	–
COc1cc(OC)c(-c2cn3ccc(N[C@H]4CC[C@H](NCc5ccccc5O)CC4)cc3n2)cc1Cl [Example 420, 2-((((1r,4r)-4-((2-(5-chloro-2,4-dimethoxyphenyl)imidazo[1,2-a]pyridin-7-yl)amino)cyclohexyl)amino)methyl)phenol]	64.6 nM	720 nM	–
COc1cc(OC)c(-c2cn3ccc(N4CCN(c5ncc(N)cn5)CC4)cc3n2)cc1Cl [Example 422, 2-(4-(2-(5-chloro-2,4-dimethoxyphenyl)imidazo[1,2-a]pyridin-7-yl)piperazin-1-yl)pyrimidin-5-amine hydrochloride]	11.2 nM	–	720 nM
COc1cc(OC)c(-c2cn3ccc(N[C@H]4CC[C@@H](NCC5CCN(C(=O)OC(C)(C)C)CC5)CC4)cc3n2)cc1Cl [Example 423, tert-butyl 4-(((cis-4-((2-(5-chloro-2,4-dimethoxyphenyl)imidazo[1,2-a]pyridin-7-yl)amino)cyclohexyl)amino)methyl)piperidine-1-carboxylate]	26.9 nM	590 nM	–
CNC1CCN(c2cc(N3CCN(c4ccn5cc(-c6cc(Cl)c(OC)cc6OC)nc5c4)CC3)ncn2)C1 (stereo not drawn) [Example 424, 1-(6-(4-(2-(5-chloro-2,4-dimethoxyphenyl)imidazo[1,2-a]pyridin-7-yl)piperazin-1-yl)pyrimidin-4-yl)-N-methylpyrrolidin-3-amine]	11.4 nM	700 nM	–
COc1cc(OC)c(-c2cn3ccc(N4CC[C@H](NC(C)C5CCN(C(=O)OC(C)(C)C)CC5)C4)cc3n2)cc1Cl (stereo partly drawn) [Example 425, tert-butyl 4-(1-(((S)-1-(2-(5-chloro-2,4-dimethoxyphenyl)imidazo[1,2-a]pyridine-7-yl)pyrrolidin-3-yl)amino)ethyl)piperidine-1-carboxylate]	57.9 nM	890 nM	–

Source: patent US10508109B2 (priority 2015, dated 2019)
